Data published in USRE49687E1, “Thienopyrimidine and thienopyridine compounds and methods of use thereof” (The Regents of The University of Michigan, priority 2014, dated 2023).

How the values were obtained:
menin = target: T1, menin (Homo sapiens, UniProt O00255); assay: Crystal structure of menin in complex with compound; conditions: FIG. 1
T1 sequence (O00255 1-610): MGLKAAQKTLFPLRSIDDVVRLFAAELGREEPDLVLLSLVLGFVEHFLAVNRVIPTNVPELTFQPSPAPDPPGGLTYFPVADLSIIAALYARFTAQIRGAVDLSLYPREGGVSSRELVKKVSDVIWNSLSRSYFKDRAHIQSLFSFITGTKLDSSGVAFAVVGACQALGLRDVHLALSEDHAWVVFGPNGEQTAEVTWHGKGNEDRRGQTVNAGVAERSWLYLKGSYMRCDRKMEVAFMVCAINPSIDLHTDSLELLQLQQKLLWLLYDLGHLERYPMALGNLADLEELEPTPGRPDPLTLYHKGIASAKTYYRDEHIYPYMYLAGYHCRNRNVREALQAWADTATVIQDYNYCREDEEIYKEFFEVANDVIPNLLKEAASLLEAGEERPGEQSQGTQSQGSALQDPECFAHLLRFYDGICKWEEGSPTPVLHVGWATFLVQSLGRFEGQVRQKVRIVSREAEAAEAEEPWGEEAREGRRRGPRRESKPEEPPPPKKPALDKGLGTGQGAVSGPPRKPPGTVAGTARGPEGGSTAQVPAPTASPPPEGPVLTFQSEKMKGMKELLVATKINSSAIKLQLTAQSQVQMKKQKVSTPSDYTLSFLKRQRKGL

[1] = test system: MV4; 11 cells (harboring MLL-AF4 fusion protein); assay: In vivo xenograft study with MV4;11 cells injected subcutaneously; parameters: species or system CB17 SCID mice; conditions: once daily, i.p., 25 mg/kg; treatment initiated when tumors reached ~100 mm^3
Source text: FIG. 3 depicts in vivo xenograft studies with MV4; 11 cells (harboring MLL-AF4 fusion protein) injected subcutaneously into CB17 SCID mice.
Efficacy Study in Mouse Xenograft Tumor Model.
Immunodeficient mice, such as 8-10 week-old female nude (nu/nu) mice, are used for in vivo efficacy studies in accordance with the guidelines approved by IACUC. Leukemia cells, such as human MV4-11 leukemia cells available from ATCC, are implanted subcutaneously via needle into female nude mice (5×10^6 cells/mouse). When the tumor reaches a size of approximately 100 mm^3 in mice, the tumor-bearing mice are randomly assigned to a vehicle control or compound treatment group (8 animals per group). Animals are treated with a compound of the present invention by oral gavage or intraperitoneal injection in an appropriate amount and frequency as can be determined by the skilled artisan without undue experimentation. Subcutaneous tumor volume in nude mice and mice body weight are measured twice weekly. Tumor volumes are calculated by measuring two perpendicular diameters with calipers (V=(length×width^2)/2). Percentage tumor growth inhibition (% TGI=1−[change of tumor volume in treatment group/change of tumor volume in control group]*100) is used to evaluate anti-tumor efficacy. Statistical significance is evaluated using a one-tailed, two sample t test. P<0.05 is considered statistically significant.

menin-MLL interaction = target: T2, menin-MLL interaction (Homo sapiens, UniProt O00255); assay: Fluorescence polarization (FP) competition assay of the menin-MLL interaction; format: binding; conditions: inhibition of the menin-MLL interaction; read-out: IC50 values for Table 1 inhibitors of menin
T2 sequence (O00255 1-610): T1 sequence (O00255 1-610)

SMILES | covalent binding of the compound to a Cys residue on menin (menin) | tumor volume [1] | IC50 (menin-MLL interaction) [nM]
C=CS(=O)(=O)N1CCN(CCn2c(C#N)cc3c(C)c(CN4CCC(Nc5ncnc6sc(CC(F)(F)F)cc56)CC4)ccc32)CC1 [Compound 3, 4-methyl-1-(2-(4-vinylsulfonylpiperazin-1-yl)ethyl)-5-((4-((6-(2,2,2-trifluoroethyl)thieno[2,3-d]pyrimidin-4-yl)amino)piperidin-1-yl)methyl)-1H-indole-2-carbonitrile] | covalent binding of the compound to a Cys residue on menin | strong reduction of tumor volume | < 30
C=CS(=O)(=O)N1CCC(CCn2c(C#N)cc3c(C)c(CN4CCC(Nc5ncnc6sc(CC(F)(F)F)cc56)CC4)ccc32)CC1 [Compound 8] |  |  | < 30
C=CC(=O)Nc1ccc(C(C)(O)Cn2c(C#N)cc3c(C)c(CN4CCC(Nc5ncnc6sc(CC(F)(F)F)cc56)CC4)ccc32)cc1 (centres unmarked) [Compound 115] |  |  | 30 to 100
